Measurements from US20230041738A1, “1H-PYRAZOLO[4,3-d]PYRIMIDINE COMPOUNDS AS TOLL-LIKE RECEPTOR 7 (TLR7) AGONISTS” (BRISTOL-MYERS SQUIBB COMPANY, priority 2020, published 2023).
pEC50: −log10 of the molar value.

Experiments:
[1] = target: T1, human TLR7 (Homo sapiens, UniProt Q9NYK1); assay: Human TLR7 agonist activity assay (hTLR7 reporter, HEK-Blue TLR7 cells, SEAP); format: cell-based; settings: HEK-Blue TLR7 cells with SEAP reporter, 18 h treatment; average where assay performed multiple times
T1 construct: host or cells: HEK-Blue TLR7 cells (engineered human embryonic kidney cells)
T1 sequence (Q9NYK1 27-1049): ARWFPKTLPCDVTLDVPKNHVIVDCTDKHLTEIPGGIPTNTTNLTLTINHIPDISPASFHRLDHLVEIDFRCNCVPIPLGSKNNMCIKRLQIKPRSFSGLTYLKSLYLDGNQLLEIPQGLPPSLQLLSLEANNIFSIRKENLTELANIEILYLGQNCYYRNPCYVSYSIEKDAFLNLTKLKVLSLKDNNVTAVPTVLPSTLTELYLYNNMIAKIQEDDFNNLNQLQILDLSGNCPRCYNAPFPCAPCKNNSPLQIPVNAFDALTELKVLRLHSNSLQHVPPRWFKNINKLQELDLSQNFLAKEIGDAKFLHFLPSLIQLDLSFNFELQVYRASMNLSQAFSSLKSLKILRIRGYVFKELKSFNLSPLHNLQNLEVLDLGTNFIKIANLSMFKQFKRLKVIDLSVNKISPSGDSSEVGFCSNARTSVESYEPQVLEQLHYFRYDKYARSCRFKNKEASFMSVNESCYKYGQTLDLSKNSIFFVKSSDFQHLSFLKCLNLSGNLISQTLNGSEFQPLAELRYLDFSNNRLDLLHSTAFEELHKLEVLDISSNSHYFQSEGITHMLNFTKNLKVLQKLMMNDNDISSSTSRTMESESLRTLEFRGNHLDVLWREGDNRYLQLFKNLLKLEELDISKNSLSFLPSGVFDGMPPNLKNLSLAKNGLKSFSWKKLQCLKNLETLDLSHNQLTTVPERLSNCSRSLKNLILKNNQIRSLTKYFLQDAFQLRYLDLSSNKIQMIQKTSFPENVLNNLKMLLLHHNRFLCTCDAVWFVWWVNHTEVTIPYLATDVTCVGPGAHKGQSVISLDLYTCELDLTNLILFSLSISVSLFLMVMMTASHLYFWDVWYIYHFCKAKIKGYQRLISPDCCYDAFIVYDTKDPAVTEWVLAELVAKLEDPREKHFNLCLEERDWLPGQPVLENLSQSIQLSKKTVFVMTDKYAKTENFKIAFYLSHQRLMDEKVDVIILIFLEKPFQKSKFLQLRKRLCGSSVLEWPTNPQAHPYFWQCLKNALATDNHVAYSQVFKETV
Protocol: This procedure describes a method for assaying human TLR7 (hTLR7) agonist activity of the compounds disclosed in this specification.
HEK-Blue™ TLR7 cells were added to each well of a 384-well tissue-culture plate (15,000 cells per well) and incubated 16-18 h at 37° C., 5% CO2. Compounds (100 nl) were dispensed into wells containing the HEK-Blue™ TLR cells and the treated cells were incubated at 37° C., 5% CO2. After 18 h treatment ten microliters of freshly-prepared Quanti-Blue™ reagent (Invivogen) was added to each well, incubated for 30 min (37° C., 5% CO2) and SEAP levels measured using an Envision plate reader (OD=620 nm). The half maximal effective concentration values (EC50; compound concentration which induced a response halfway between the assay baseline and maximum) were calculated.

[2] = tested on: CD69; assay: Induction of CD69 in human whole blood (hWB); format: cell-based; settings: 17 hrs at 37 C, CD69 surface staining, 100% set to 1 uM resiquimod, average where performed multiple times
Protocol: The induction of Type I interferon (IFN) MX-1 genes and the B-cell activation marker CD69 are downstream events that occur upon activation of the TLR7 pathway. The following is a human whole blood assay that measures their induction in response to a TLR7 agonist.
Heparinized human whole blood was harvested from human subjects and treated with test TLR7 agonist compounds at 1 mM. The blood was diluted with RPMI 1640 media and Echo was used to predot 10 nL per well giving a final concentration of 1 uM (10 nL in 10 uL of blood). After mixing on a shaker for 30 sec, the plates were covered and placed in a 37° C. chamber for o/n=17 hrs. Fixing/lysis buffer was prepared (5×→1× in H2O, warm at 37° C.; Cat #BD 558049) and kept the perm buffer (on ice) for later use.
For surface markers staining (CD69): prepared surface Abs: 0.045 ul hCD14-FITC (ThermoFisher Cat #MHCD1401)+0.6 ul hCD19-ef450 (ThermoFisher Cat #48-0198-42)+1.5 ul hCD69-PE (cat #BD555531)+0.855 ul FACS buffer. Added 3 ul/well, spin1000 rpm for 1 min and mixed on shaker for 30 sec, put on ice for 30 mins. Stop stimulation after 30 min with 70 uL of prewarmed 1× fix/lysis buffer and use Feliex mate to resuspend (15 times, change tips for each plate) and incubate at 37C for 10 min.
Centrifuge at 2000 rpm for 5 min aspirate with HCS plate washer, mix on shaker for 30 sec and then wash with 70 uL in dPBS and pelleted 2× s (2000 rpm for 5 min) and 50 ul wash in FACS buffer pelleted 1×s(2000 rpm for 5 min). Mix on shaker for 30 sec. For Intracellular markers staining (MX-1): Add 50 ul of BD Perm buffer III and mix on shaker for 30 sec. Incubate on ice for 30 min (in the dark). Wash with 50 uL of FACS buffer 2× (spin @2300 rpm×5 min after perm) followed by mixing on shaker for 30 sec. Resuspended in 20 ul of FACS buffer containing MX1 antibody ( )(4812)-Alexa 647: Novus Biologicals #NBP2-43704AF647) 20 ul FACS bf+0.8 ul hlgG+0.04 ul MX-1. Spin 1000 rpm for 1 min, mix on shaker for 30se and the samples were incubated at RT in the dark for 45 min followed by washing 2× FACS buffer (spin @2300 rpm×5 min after perm). Resuspend 20 ul (35 uL total per well) of FACS buffer and cover with foil and place in 4° C. to read the following day. Plates were read on iQuePlus. The results were loaded into toolset and IC50 curves are generated in curve master. The y-axis 100% is set to 1 uM of resiquimod.

Row | SMILES | pEC50 [1] | pEC50 [2]
1 | CCCCNc1nc(N)nc2cnn(Cc3ccc(CN4C[C@H]5C[C@@H]4CN5C)cc3OC)c12 [Compound 105, N7-butyl-1-[(2-methoxy-4-{[(1R,4R)-5-methyl-2,5-diaza-bicyclo[2.2.1]heptan-2-yl]methyl}-phenyl)methyl]-1H-pyrazolo[4,3-d]pyrimidine-5,7-diamine] | 7.68 | 8.38
2 | COc1cc(CN2C[C@@H]3C[C@H]2CN3)ccc1Cn1ncc2nc(N)nc(NCc3cc(C)on3)c21 [Compound 106, 1-[(4-{[(1S,4S)-2,5-diazabicyclo-[2.2.1]heptan-2-yl]methyl}-2-methoxyphenyl)methyl]-N7-[(5-methyl-1,2-oxazol-3-yl)methyl]-1H-pyrazolo[4,3-d]pyrimidine-5,7-diamine] | 6.63 | 7.13
3 | CCCCNc1nc(N)nc2cnn(Cc3ccc(C(=O)N4C[C@H]5C[C@@H]4CN5C)cc3OC)c12 [Compound 110, N7-butyl-1-({2-methoxy-4-[(1R,4R)-5-methyl-2,5-diazabicyclo-[2.2.1]heptane-2-carbonyl]-phenyl}methyl)-1H-pyrazolo[4,3-d]pyrimidine-5,7-diamine] | 6.42 | 8.70
4 | CCCCNc1nc(N)nc2cnn(Cc3ccc(C(=O)N4C[C@H]5CN(C)C[C@H]5C4)cc3OC)c12 [Compound 111, 1-({4-[(3aR,6aS)-5-methyl-octahydropyrrolo[3,4-c]pyrrole-2-carbonyl]-2-methoxyphenyl}-methyl)-N7-butyl-1H-pyrazolo[4,3-d]pyrimidine-5,7-diamine] | 7.79 | 7.95
5 | COc1cc(CN2C[C@@H]3C[C@H]2CN3)ccc1Cn1ncc2nc(N)nc(NCC3CC(C4CC4)C3)c21 (stereo partly drawn) [Compound 112, N7-[(3-cyclopropylcyclobutyl)-methyl]-1-[(4-{[(1S,4S)-2,5-diazabicyclo[2.2.1]heptan-2-yl]methyl}-2-methoxy-phenyl)methyl]-1H-pyrazolo[4,3-d]pyrimidine-5,7-diamine] | 7.52 | 6.82
6 | COc1cc(CN2C[C@H]3CNC[C@H]3C2)ccc1Cn1ncc2nc(N)nc(NCC3CC(C4CC4)C3)c21 (stereo partly drawn) [Compound 113, 1-[(4-{[(3aR,6aS)-octahydro-pyrrolo[3,4-c]pyrrol-2-yl]methyl}-2-methoxyphenyl)methyl]-N7-[(3-cyclopropylcyclobutyl)methyl]-1H-pyrazolo[4,3-d]pyrimidine-5,7-diamine] | 7.65 | 7.36
7 | CCCCNc1nc(N)nc2c(C)nn(Cc3ccc(C(=O)N4C[C@H]5C[C@@H]4CN5C)cc3OC)c12 [Compound 114, N7-butyl-1-({2-methoxy-4-[(1R,4R)-5-methyl-2,5-diazabicyclo-[2.2.1]heptane-2-carbonyl]phenyl}-methyl)-3-methyl-1H-pyrazolo[4,3-d]pyrimidine-5,7-diamine] | 6.92 | 7.81
8 | CCCCNc1nc(N)nc2c(C)nn(Cc3ccc(C(=O)N4C[C@H]5CN(C)C[C@H]5C4)cc3OC)c12 [Compound 115, 1-({4-[(3aR,6aS)-5-methyl-octahydropyrrolo[3,4-c]pyrrole-2-carbonyl]-2-methoxyphenyl}methyl)-N7-butyl-3-methyl-1H-pyrazolo[4,3-d]pyrimidine-5,7-diamine] | 7.10 | 7.96
9 | CCCCNc1nc(N)nc2cnn(Cc3ccc(C(=O)N4C[C@H]5CN(C)C[C@H]5C4)cc3OC(F)F)c12 [Compound 116, 1-({4-[(3aR,6aS)-5-methyl-octa-hydropyrrolo[3,4-c]pyrrole-2-carbonyl]-2-(difluoromethoxy)phenyl}-methyl)-N7-butyl-1H-pyrazolo[4,3-d]pyrimidine-5,7-diamine] | 6.76 | 7.85
10 | CCCCNc1nc(N)nc2cnn(Cc3ccc(CN4C[C@H]5CN(C)C[C@H]5C4)cc3OC(F)F)c12 [Compound 117, 1-[(4-{[(3aR,6aS)-5-methyl-octa-hdropyrrolo[3,4-c]pyrrol-2-yl]methyl}-2-(difluoromethoxy)phenyl)-methyl]-N7-butyl-1H-pyrazolo[4,3-d]pyrimidine-5,7-diamine] | 7.03 | 7.79
11 | CCCCNc1nc(N)nc2cnn(Cc3ccc(C(=O)N4C[C@H]5CN(C)C[C@H]5C4)cc3OC3CC3)c12 [Compound 118, 1-({4-[(3aR,6aS)-5-methyl-octa-hydropyrrolo[3,4-c]pyrrole-2-carbonyl]-2-cyclopropoxyphenyl}-methyl)-N7-butyl-1H-pyrazolo[4,3-d]pyrimidine-5,7-diamine] | 6.47 | 7.29
12 | CCC[C@@H](CCO)Nc1nc(N)nc2cnn(Cc3ccc(C(=O)N4C[C@H]5C[C@@H]4CN5C)cc3OC)c12 [Compound 119, (3S)-3-{[5-amino-1-({2-methoxy-4-[(1R,4R)-5-methyl-2,5-diazabicyclo [2.2.1]heptane-2-carbonyl]phenyl}methyl)-1H-pyrazolo[4,3-d]pyrimidin-7-yl]amino}hexan-1-ol] | 6.98 | 7.74
13 | CCC[C@@H](CCO)Nc1nc(N)nc2cnn(Cc3ccc(C(=O)N4C[C@H]5CNC[C@H]5C4)cc3OC)c12 [Compound 120] | 6.76 | 6.86
14 | CCC[C@@H](CCO)Nc1nc(N)nc2cnn(Cc3ccc(CN4C[C@H]5C[C@@H]4CN5C)cc3OC)c12 [Compound 121, (3S)-3-({5-amino-1-[(2-methoxy-4-{[(1R,4R)-5-methyl-2,5-diaza-bicyclo[2.2.1]heptan-2-yl]methyl}-phenyl)methyl]-1H-pyrazolo[4,3-d]pyrimidin-7-yl}amino)hexan-1-ol] | 7.66 | 8.89
15 | COc1cc(CN2C[C@@H]3C[C@H]2CN3CCO)ccc1Cn1nc(C)c2nc(N)nc(NCc3noc(C)n3)c21 [Compound 142, 2-[(1S,4S)-5-({4-[(5-amino-3-methyl-7-{[(5-methyl-1,2,4-oxadiazol-3-yl)methyl]amino}-1H-pyrazolo-[4,3-d]pyrimidin-1-yl)methyl]-3-methoxyphenyl}methyl)-2,5-diaza-bicyclo[2.2.1]heptan-2-yl]ethan-1-ol] | 5.91 | –
